# Key:
# Test in all cases: relative viability (nuclei count vs DMSO), 5 days (fraction); higher = more cells survive
# 201T = test system: 201T
# Procedure, shortened: (§1)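 The day after seeding in 1536-well plates, lung cancer cell lines were treated by pin tool with a single drug, or with a fixed anchor-drug dose together with five library-drug doses (not always all listed) in √10 steps. After 5 days, a combined fix-and-stain solution (final 0.05% Triton X-100, 1% formaldehyde, 1 ug/ml Hoechst) was added. Nuclei counted on 4× images gave relative viability as treated counts over vehicle counts, reported as the median of duplicate plates.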
# ABC-1 = test system: ABC-1
# Procedure, shortened: as §1
# COR-L 105 = test system: COR-L 105
# Procedure, shortened: as §1
# COR-L23 = test system: COR-L23
# Procedure, shortened: as §1
# EKVX = test system: EKVX
# Procedure, shortened: as §1
# EPLC-272H = test system: EPLC-272H
# Procedure, shortened: as §1
# H3255 = test system: H3255
# Procedure, shortened: as §1
# HCC-15 = test system: HCC-15
# Procedure, shortened: as §1
# HCC-827 = test system: HCC-827
# Procedure, shortened: as §1
# LCLC-103H = test system: LCLC-103H
# Procedure, shortened: as §1
# NCI-H1437 = test system: NCI-H1437
# Procedure, shortened: as §1
# NCI-H1650 = test system: NCI-H1650
# Procedure, shortened: as §1
# NCI-H1651 = test system: NCI-H1651
# Procedure, shortened: as §1
# NCI-H1975 = test system: NCI-H1975
# Procedure, shortened: as §1
# NCI-H2087 = test system: NCI-H2087
# Procedure, shortened: as §1
# NCI-H358 = test system: NCI-H358
# Procedure, shortened: as §1
# NCI-H520 = test system: NCI-H520
# Procedure, shortened: as §1
# NCI-H647 = test system: NCI-H647
# Procedure, shortened: as §1
# NCI-H661 = test system: NCI-H661
# Procedure, shortened: as §1
# NCI-H727 = test system: NCI-H727
# Procedure, shortened: as §1
# UMC-11 = test system: UMC-11
# Procedure, shortened: as §1
smiles,measurement,setting,value
Cc1cnc(-c2cnc(NCCNc3ccc(C#N)cn3)nc2-c2ccc(Cl)cc2Cl)[nH]1 + COc1cc2c(Oc3ccc(NC(=O)C4(C(=O)Nc5ccc(F)cc5)CC4)cc3F)ccnc2cc1OCCCN1CCOCC1 [Foretinib] (partner 0.25 µM),relative viability,201T; first compound 0.08 µM,1.19
same,relative viability,201T; first compound 0.253 µM,0.807
same,relative viability,201T; first compound 0.8 µM,1.16
same,relative viability,201T; first compound 2.53 µM,1.14
same,relative viability,ABC-1; first compound 0.08 µM,1.32
same,relative viability,ABC-1; first compound 0.253 µM,1.31
same,relative viability,ABC-1; first compound 0.8 µM,1.34
same,relative viability,ABC-1; first compound 2.53 µM,1.2
same,relative viability,COR-L 105; first compound 0.08 µM,0.906
same,relative viability,COR-L 105; first compound 0.253 µM,1.03
same,relative viability,COR-L 105; first compound 0.8 µM,0.943
same,relative viability,COR-L 105; first compound 2.53 µM,0.868
same,relative viability,COR-L23; first compound 0.08 µM,0.853
same,relative viability,COR-L23; first compound 0.253 µM,0.877
same,relative viability,COR-L23; first compound 0.8 µM,1.08
same,relative viability,COR-L23; first compound 2.53 µM,0.951
same,relative viability,EKVX; first compound 0.08 µM,0.588
same,relative viability,EKVX; first compound 0.253 µM,0.555
same,relative viability,EKVX; first compound 0.8 µM,0.626
same,relative viability,EKVX; first compound 2.53 µM,0.727
same,relative viability,EPLC-272H; first compound 0.08 µM,0.737
same,relative viability,EPLC-272H; first compound 0.253 µM,0.617
same,relative viability,EPLC-272H; first compound 0.8 µM,0.692
same,relative viability,EPLC-272H; first compound 2.53 µM,0.747
same,relative viability,H3255; first compound 0.08 µM,0.956
same,relative viability,H3255; first compound 0.253 µM,0.696
same,relative viability,H3255; first compound 0.8 µM,0.988
same,relative viability,H3255; first compound 2.53 µM,0.841
same,relative viability,HCC-15; first compound 0.08 µM,1.12
same,relative viability,HCC-15; first compound 0.253 µM,0.895
same,relative viability,HCC-15; first compound 0.8 µM,1.02
same,relative viability,HCC-15; first compound 2.53 µM,0.941
same,relative viability,HCC-827; first compound 0.08 µM,1.04
same,relative viability,HCC-827; first compound 0.8 µM,0.983
same,relative viability,HCC-827; first compound 2.53 µM,0.976
same,relative viability,LCLC-103H; first compound 0.08 µM,0.751
same,relative viability,LCLC-103H; first compound 0.253 µM,0.734
same,relative viability,LCLC-103H; first compound 0.8 µM,0.745
same,relative viability,LCLC-103H; first compound 2.53 µM,0.79
same,relative viability,NCI-H1437; first compound 0.08 µM,1.18
same,relative viability,NCI-H1437; first compound 0.253 µM,1.25
same,relative viability,NCI-H1437; first compound 0.8 µM,1.24
same,relative viability,NCI-H1437; first compound 2.53 µM,1.25
same,relative viability,NCI-H1650; first compound 0.08 µM,1.37
same,relative viability,NCI-H1650; first compound 0.253 µM,1.22
same,relative viability,NCI-H1650; first compound 0.8 µM,1.25
same,relative viability,NCI-H1650; first compound 2.53 µM,1.01
same,relative viability,NCI-H1651; first compound 0.08 µM,0.728
same,relative viability,NCI-H1651; first compound 0.253 µM,0.777
same,relative viability,NCI-H1651; first compound 0.8 µM,0.785
same,relative viability,NCI-H1651; first compound 2.53 µM,0.883
same,relative viability,NCI-H1975; first compound 0.08 µM,0.928
same,relative viability,NCI-H1975; first compound 0.253 µM,0.911
same,relative viability,NCI-H1975; first compound 0.8 µM,0.771
same,relative viability,NCI-H1975; first compound 2.53 µM,0.573
same,relative viability,NCI-H2087; first compound 0.08 µM,1.31
same,relative viability,NCI-H2087; first compound 0.253 µM,1.06
same,relative viability,NCI-H2087; first compound 0.8 µM,1.14
same,relative viability,NCI-H2087; first compound 2.53 µM,1.14
same,relative viability,NCI-H358; first compound 0.08 µM,0.735
same,relative viability,NCI-H358; first compound 0.253 µM,0.597
same,relative viability,NCI-H358; first compound 0.8 µM,0.404
same,relative viability,NCI-H358; first compound 2.53 µM,0.509
same,relative viability,NCI-H520; first compound 0.08 µM,0.71
same,relative viability,NCI-H520; first compound 0.253 µM,0.593
same,relative viability,NCI-H520; first compound 0.8 µM,0.918
same,relative viability,NCI-H520; first compound 2.53 µM,1.04
same,relative viability,NCI-H647; first compound 0.08 µM,1.35
same,relative viability,NCI-H647; first compound 0.253 µM,1.03
same,relative viability,NCI-H647; first compound 0.8 µM,0.938
same,relative viability,NCI-H647; first compound 2.53 µM,1.15
same,relative viability,NCI-H661; first compound 0.08 µM,1.05
same,relative viability,NCI-H661; first compound 0.253 µM,0.99
same,relative viability,NCI-H661; first compound 0.8 µM,1.01
same,relative viability,NCI-H661; first compound 2.53 µM,0.894
same,relative viability,NCI-H727; first compound 0.08 µM,0.943
same,relative viability,NCI-H727; first compound 0.253 µM,0.918
same,relative viability,NCI-H727; first compound 0.8 µM,0.732
same,relative viability,NCI-H727; first compound 2.53 µM,0.898
same,relative viability,UMC-11; first compound 0.08 µM,0.986
same,relative viability,UMC-11; first compound 0.253 µM,0.999
same,relative viability,UMC-11; first compound 0.8 µM,1.11
same,relative viability,UMC-11; first compound 2.53 µM,1

# Source: the supplement of paper PMC10307832
